Laboratory results reported in patent publication US7862838B1, “Composition and regimen for the treatment of herpes simplex and herpes zoster primarily by eliminating their pathogenetic conditions and taking into account both pathogenesis and etiology” (priority 2009, dated 2011).

What was measured:
herpes zoster = assay: Treatment of herpes zoster in patients, case report and general statement; format: in vivo; conditions: case 5, herpes zoster around right eye
Source text: The average total period of treatment with the present invention is from about 2-4 days for herpes simplex and from about 3-7 days for herpes zoster. After the acute stage, crusts of the lesion form and fall off gradually, and then a red spot or spots remain for some more days. […] […] For quicker relief, the patient preferred to take the formula of the present invention along with acyclovir.

herpes simplex = assay: Treatment and prevention of herpes simplex (lips, mouth) in patients, case reports and general statements; format: in vivo; conditions: large dosage (200-500 mg), applicant's experience
Description: The treatment regimen of the present invention comprises: Initially, administering to the patient 2 capsules (or tablets, the same hereinafter) of said formula orally every 2-4 hours. The dosage may be higher in severe cases, and may be adjusted by the prescribing health care provider. When symptoms are alleviated (see description below), usually after 1-2 days, administer 1 capsule of said formula every 4 hours until symptoms disappear. The average total period of treatment with the present invention is from about 2-4 days for herpes simplex and from about 3-7 days for herpes zoster. After the acute stage, crusts of the lesion form and fall off gradually, and then a red spot or spots remain for some more days. The formula of the present invention can be used for therapeutic prevention of herpes simplex: Whenever the patient feels a stinging and burning sensation on the potential site, or feels roughness on the tip of the tongue, they can ingest 1-2 capsules of the formula, and repeat every 2-4 hours if necessary. […] After several such preventive measures, recurrence of herpes simplex will be less and less likely, or latent for a sustained period. […] Patient stated that they had had recurrent maceration in the angles of the mouth since childhood. […]

| SMILES | pain relief before treatment with the formula (herpes zoster) | effect on the course of herpes simplex (herpes simplex) |
| --- | --- | --- |
| CC(C)Cc1ccc(C(C)C(=O)O)cc1 (stereo not drawn) [Ibuprofen] | effective only for a short time | – |
| O=C1O[C@H]([C@@H](O)CO)C(O)=C1O [vitamin C] | – | made herpes simplex worse |
| Nc1nc2c(ncn2COCCO)c(=O)[nH]1 [acyclovir] | got some relief | – |
